Test system: PDC tumor spheroids with HUVEC/MSC, viability
Assay: Anticancer human tumor 439559-082-T-J2-PDC patient-derived colon adenocarcinoma cell line growth inhibition [TAK]
Conditions: for IC50: curve of first compound; for viability, T/C: stronger effect = lower value
Text: Combinatorial screen of targeted agents with TAK-243 and ipatasertib in multi-cell type tumor spheroids
A high-throughput screen of multi-cell type tumor spheroids was designed to identify active combinations of targeted small molecules and TAK-243 or ipatasertib. Complex spheroids include a stromal component modeled by human endothelial cells (HUVEC) and fibroblasts modeled by human mesenchymal stem cells (MSCs). The concentration ranges selected for each drug and investigational agent were based upon clinically achievable concentrations if the clinical Cmax of the agent was known.
Compounds. The drugs and investigational agents: TAK-243 (785004), ipatasertib (767898), everolimus (733504), selumetinib (741078), bortezomib (756655), trametinib (758246), ixazomib (758254), vemurafenib (761431), dabrafenib (764134), sapanisertib (764658), alpelisib (765974), and copanlisib (816437), were obtained from the National Cancer Institute (NCI) Developmental Therapeutics Program Chemical Repository. The FDA-approved anticancer drug set is available from the NCI Developmental Therapeutics Program. […] The stock solutions were prepared in dimethyl sulfoxide (DMSO, Sigma-Aldrich, St. Louis, MO, cat. D2650) at 800-fold the tested concentration and stored at -70 degrees C prior to their use. All drugs and investigational agents were tested over a range starting from a high concentration at or near the clinical Cmax and decreasing in half-log increments. If the clinical Cmax for an agent had not been determined, the highest concentration tested was 10 microM.
NCI60 Cell Culture. NCI60 cell lines were obtained from the NCI Developmental Therapeutics Program Tumor Repository. For each lot of cells, the Repository performed Applied Biosystems AmpFLSTR Identifiler testing with PCR amplification to confirm consistency with the published Identifier STR profile for each cell line. Cells were kept in continuous culture for no more than 20 passages. The optimal seeding densities for each of the cell lines at each time point assessed were determined prior to performing the concentration response studies. Briefly, the NCI60 human tumor lines were grown as monolayers in RPMI 1640 medium supplemented with 10% FBS and 2 mmol/L L-glutamine.
An additional 2 lines were from the NCI60 cell line panel including melanomas, MALME-3M and SK-MEL-2. Pooled donor human umbilical vein endothelial cells (HUVEC, Lonza, cat. CC-2519) and human mesenchymal stem cells (hMSC, Lonza, cat. PT-2501) were purchased from Lonza (Walkersville, MD).
PDMR cell lines were grown in complete medium (DC medium): Dulbecco's modified Eagle's medium (DMEM)/F12 supplemented with 5% fetal bovine serum (FBS), 2 mM L-glutamine, 100 U/mL penicillin and 100 µg/ml streptomycin, 0.4 µg/ml hydrocortisone, 10 ng/ml epidermal growth factor (EGF) recombinant human protein, 24 µg/mL adenine, and 0.1 mg/mL primocin. During culture from frozen stock vials, PDMR cells were cultured in the same medium containing 10 µM Y-27632 (see Table 3). The PDCs were cultured in complete DMEM/F12 media without 10 microM Y-27632 dihydrochloride for at least two passages prior to the screen. The pooled donor HUVEC and hMSC were cultured in endothelial cell growth medium 2 (PromoCell, Heidelberg, Germany, cat. C-22011) and mesenchymal stem cell growth medium 2 (PromoCell, cat. C-28009), respectively. For all experiments, HUVEC and hMSC were used at passages </=5.
For the pre-screen, cell seeding densities were determined from a titration spanning the range from 5,000 to 313 cells per well. The mct-spheroids including 60% malignant cells, 25% HUVEC and 15% MSC dispensed as a mixture into U-bottom Ultra-Low Attachment 384-well plates (Corning, NY)
High-throughput Drug Combination Screening.
Prior to their inoculation into 384-well plates, malignant cells, HUVEC, and hMSC were removed from T flasks using TrypLE express (Thermo Fisher Scientific, cat. 12605036) and harvested by centrifugation for 5 min at 233 x g. […]

[1] = second compound 0.3 µM, first compound 0.000316 µM
[2] = second compound 0.3 µM, first compound 0.001 µM
[3] = second compound 0.3 µM, first compound 0.00316 µM
[4] = second compound 0.3 µM, first compound 0.01 µM
[5] = second compound 0.3 µM, first compound 0.0316 µM
[6] = second compound 0.3 µM, first compound 0.1 µM
[7] = second compound 0.949 µM, first compound 0.000316 µM
[8] = second compound 0.949 µM, first compound 0.001 µM
[9] = second compound 0.949 µM, first compound 0.00316 µM
[10] = second compound 0.949 µM, first compound 0.01 µM
[11] = second compound 0.949 µM, first compound 0.0316 µM
[12] = second compound 0.949 µM, first compound 0.1 µM
[13] = second compound 3 µM, first compound 0.000316 µM
[14] = second compound 3 µM, first compound 0.001 µM
[15] = second compound 3 µM, first compound 0.00316 µM
[16] = second compound 3 µM, first compound 0.01 µM
[17] = second compound 3 µM, first compound 0.0316 µM
[18] = second compound 3 µM, first compound 0.1 µM
[19] = second compound 9.49 µM, first compound 0.000316 µM
[20] = second compound 9.49 µM, first compound 0.001 µM
[21] = second compound 9.49 µM, first compound 0.00316 µM
[22] = second compound 9.49 µM, first compound 0.01 µM
[23] = second compound 9.49 µM, first compound 0.0316 µM
[24] = second compound 9.49 µM, first compound 0.1 µM
[25] = second compound 30 µM, first compound 0.000316 µM
[26] = second compound 30 µM, first compound 0.001 µM
[27] = second compound 30 µM, first compound 0.00316 µM
[28] = second compound 30 µM, first compound 0.01 µM
[29] = second compound 30 µM, first compound 0.0316 µM
[30] = second compound 30 µM, first compound 0.1 µM
[31] = second compound 0.3 µM, first compound 0.316 µM
[32] = second compound 0.3 µM, first compound 1 µM
[33] = second compound 0.3 µM, first compound 3.16 µM
[34] = second compound 0.3 µM, first compound 10 µM
[35] = second compound 0.949 µM, first compound 0.316 µM
[36] = second compound 0.949 µM, first compound 1 µM
[37] = second compound 0.949 µM, first compound 3.16 µM
[38] = second compound 0.949 µM, first compound 10 µM
[39] = second compound 3 µM, first compound 0.316 µM
[40] = second compound 3 µM, first compound 1 µM
[41] = second compound 3 µM, first compound 3.16 µM
[42] = second compound 3 µM, first compound 10 µM
[43] = second compound 9.49 µM, first compound 0.316 µM
[44] = second compound 9.49 µM, first compound 1 µM
[45] = second compound 9.49 µM, first compound 3.16 µM
[46] = second compound 9.49 µM, first compound 10 µM
[47] = second compound 30 µM, first compound 0.316 µM
[48] = second compound 30 µM, first compound 1 µM
[49] = second compound 30 µM, first compound 3.16 µM
[50] = second compound 30 µM, first compound 10 µM
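Also: spheroids exposed to drugs for seven days before readout.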

## CC(C)n1nc(-c2ccc3oc(N)nc3c2)c2c(N)ncnc21 + CC(C)NCC(C(=O)N1CCN(c2ncnc3c2C(C)CC3O)CC1)c1ccc(Cl)cc1
Second compound 0.3 µM
  IC50: > 0.1 µM
Second compound 0.949 µM
  IC50: > 0.1 µM
Second compound 3 µM
  IC50: > 0.1 µM
Second compound 9.49 µM
  IC50: > 0.1 µM
Second compound 30 µM
  IC50: > 0.1 µM
[1]
  viability, T/C: 109%
[2]
  viability, T/C: 98.8%
[3]
  viability, T/C: 96.5%
[4]
  viability, T/C: 80.4%
[5]
  viability, T/C: 73.1%
[6]
  viability, T/C: 71.2%
[7]
  viability, T/C: 106%
[8]
  viability, T/C: 101%
[9]
  viability, T/C: 83%
[10]
  viability, T/C: 85%
[11]
  viability, T/C: 76%
[12]
  viability, T/C: 68%
[13]
  viability, T/C: 101%
[14]
  viability, T/C: 91.8%
[15]
  viability, T/C: 80.8%
[16]
  viability, T/C: 82%
[17]
  viability, T/C: 73.7%
[18]
  viability, T/C: 71.8%
[19]
  viability, T/C: 89.5%
[20]
  viability, T/C: 94.6%
[21]
  viability, T/C: 84.1%
[22]
  viability, T/C: 78.7%
[23]
  viability, T/C: 69.9%
[24]
  viability, T/C: 66.8%
[25]
  viability, T/C: 88.6%
[26]
  viability, T/C: 91.1%
[27]
  viability, T/C: 87.8%
[28]
  viability, T/C: 75%
[29]
  viability, T/C: 73.3%
[30]
  viability, T/C: 70.3%

## CC(C)CC(NC(=O)CNC(=O)c1cc(Cl)ccc1Cl)B1OC(=O)CC(CC(=O)O)(C(=O)O)O1 (stereo not given) + CC(C)NCC(C(=O)N1CCN(c2ncnc3c2C(C)CC3O)CC1)c1ccc(Cl)cc1
Second compound 0.3 µM
  IC50: > 0.1 µM
Second compound 0.949 µM
  IC50: > 0.1 µM
Second compound 3 µM
  IC50: > 0.1 µM
Second compound 9.49 µM
  IC50: > 0.1 µM
Second compound 30 µM
  IC50: > 0.1 µM
[1]
  viability, T/C: 98.8%
[2]
  viability, T/C: 105%
[3]
  viability, T/C: 96%
[4]
  viability, T/C: 94.4%
[5]
  viability, T/C: 79.7%
[6]
  viability, T/C: 57.7%
[7]
  viability, T/C: 117%
[8]
  viability, T/C: 107%
[9]
  viability, T/C: 102%
[10]
  viability, T/C: 98.4%
[11]
  viability, T/C: 79.6%
[12]
  viability, T/C: 61.1%
[13]
  viability, T/C: 107%
[14]
  viability, T/C: 98.8%
[15]
  viability, T/C: 88.5%
[16]
  viability, T/C: 98.7%
[17]
  viability, T/C: 75.5%
[18]
  viability, T/C: 58.4%
[19]
  viability, T/C: 95.7%
[20]
  viability, T/C: 96.7%
[21]
  viability, T/C: 93%
[22]
  viability, T/C: 89%
[23]
  viability, T/C: 70.4%
[24]
  viability, T/C: 56.5%
[25]
  viability, T/C: 85.7%
[26]
  viability, T/C: 90.5%
[27]
  viability, T/C: 87%
[28]
  viability, T/C: 83.3%
[29]
  viability, T/C: 75.3%
[30]
  viability, T/C: 57.5%

## CCCS(=O)(=O)Nc1ccc(F)c(C(=O)c2c[nH]c3ncc(-c4ccc(Cl)cc4)cc23)c1F + CC(C)NCC(C(=O)N1CCN(c2ncnc3c2C(C)CC3O)CC1)c1ccc(Cl)cc1
Second compound 0.3 µM
  IC50: > 100 µM
Second compound 0.949 µM
  IC50: > 100 µM
Second compound 3 µM
  IC50: > 100 µM
Second compound 9.49 µM
  IC50: > 100 µM
Second compound 30 µM
  IC50: 24.8 µM
[31]
  viability, T/C: 117%
[32]
  viability, T/C: 103%
[33]
  viability, T/C: 100%
[34]
  viability, T/C: 91.5%
Second compound 0.3 µM, first compound 31.6 µM
  viability, T/C: 93.4%
Second compound 0.3 µM, first compound 100 µM
  viability, T/C: 106%
[35]
  viability, T/C: 122%
[36]
  viability, T/C: 99.1%
[37]
  viability, T/C: 94.6%
[38]
  viability, T/C: 86.2%
Second compound 0.949 µM, first compound 31.6 µM
  viability, T/C: 21.8%
Second compound 0.949 µM, first compound 100 µM
  viability, T/C: 100%
[39]
  viability, T/C: 108%
[40]
  viability, T/C: 107%
[41]
  viability, T/C: 88.3%
[42]
  viability, T/C: 76%
Second compound 3 µM, first compound 31.6 µM
  viability, T/C: 51.6%
Second compound 3 µM, first compound 100 µM
  viability, T/C: 94.6%
[43]
  viability, T/C: 96.6%
[44]
  viability, T/C: 101%
[45]
  viability, T/C: 80.1%
[46]
  viability, T/C: 72.5%
Second compound 9.49 µM, first compound 31.6 µM
  viability, T/C: 8.73%
Second compound 9.49 µM, first compound 100 µM
  viability, T/C: 88.5%
[47]
  viability, T/C: 87.9%
[48]
  viability, T/C: 94.6%
[49]
  viability, T/C: 84.8%
[50]
  viability, T/C: 71.7%
Second compound 30 µM, first compound 31.6 µM
  viability, T/C: 1.55%
Second compound 30 µM, first compound 100 µM
  viability, T/C: 86.9%

## Cc1nc(NC(=O)N2CCCC2C(N)=O)sc1-c1ccnc(C(C)(C)C(F)(F)F)c1 (stereo not given) + CC(C)NCC(C(=O)N1CCN(c2ncnc3c2C(C)CC3O)CC1)c1ccc(Cl)cc1
Second compound 0.3 µM
  IC50: > 10 µM
Second compound 0.949 µM
  IC50: > 10 µM
Second compound 3 µM
  IC50: > 10 µM
Second compound 9.49 µM
  IC50: > 10 µM
Second compound 30 µM
  IC50: > 10 µM
[5]
  viability, T/C: 106%
[6]
  viability, T/C: 98.8%
[31]
  viability, T/C: 85%
[32]
  viability, T/C: 86.8%
[33]
  viability, T/C: 80.9%
[34]
  viability, T/C: 69.6%
[11]
  viability, T/C: 109%
[12]
  viability, T/C: 102%
[35]
  viability, T/C: 86.3%
[36]
  viability, T/C: 85.8%
[37]
  viability, T/C: 80.1%
[38]
  viability, T/C: 70%
[17]
  viability, T/C: 98.8%
[18]
  viability, T/C: 102%
[39]
  viability, T/C: 85.5%
[40]
  viability, T/C: 85.6%
[41]
  viability, T/C: 78.5%
[42]
  viability, T/C: 82.3%
[23]
  viability, T/C: 95.8%
[24]
  viability, T/C: 91.4%
[43]
  viability, T/C: 85%
[44]
  viability, T/C: 83.1%
[45]
  viability, T/C: 75.7%
[46]
  viability, T/C: 74.2%
[29]
  viability, T/C: 86.4%
[30]
  viability, T/C: 91.7%
[47]
  viability, T/C: 84.9%
[48]
  viability, T/C: 79%
[49]
  viability, T/C: 81.3%
[50]
  viability, T/C: 71.5%
